From patent publication US11932640B1, “Pyrrolo[3,4-b]quinoline compounds as antibacterial agents” (KING FAISAL UNIVERSITY, priority 2023, dated 2024)
≈ marks a conversion by molar mass, not a printed value. Like-named read-outs stand apart in the source and are kept apart here.

Tests used:
[1] = tested on: Klebsiella pneumonia MTCC 618; test: Antibacterial MIC, CLSI M07-A10 dilution; format: cell-based; details: Klebsiella pneumoniae, MTCC618
[2] = tested on: Bacillus subtilis MTCC 441; test: Antibacterial MIC, CLSI M07-A10 dilution; format: cell-based; details: MTCC441
[3] = tested on: Staphylococcus aureus ATCC 29213; test: Antibacterial MIC, CLSI M07-A10 dilution; format: cell-based; details: ATCC29213
[4] = tested on: Staphylococcus epidermidis; test: Antibacterial MIC, CLSI M07-A10 dilution; format: cell-based
[5] = tested on: Enterococcus faecium ATCC 35667; test: Antibacterial MIC, CLSI M07-A10 dilution; format: cell-based; details: ATCC35667
[6] = tested on: Staphylococcus aureus ATCC BAA-1556 (MERSA resistant); test: Antibacterial MIC, CLSI M07-A10 dilution; format: cell-based; details: ATCCBAA1556
[7] = tested on: Enterococcus faecium ATCC 51559 (VRE resistant); test: Antibacterial MIC, CLSI M07-A10 dilution; format: cell-based
[8] = tested on: Pseudomonas aeruginosa MTCC 741; test: Antibacterial MIC, CLSI M07-A10 dilution; format: cell-based; details: MTCC741
[9] = tested on: Mycobacterium tuberculosis H37Rv strain; test: Anti-tubercular alamar blue microplate MIC; format: cell-based; details: 168 h, M. tuberculosis H37Rv, 7 days at 37° C., read-out: anti-mycobacterial activity (MIC)
[10] = tested on: Escherichia coli MTCC 443; test: Antibacterial MIC, CLSI M07-A10 dilution; format: cell-based; details: MTCC443
[11] = biological target: T1, DNA gyrase from E. coli (Escherichia coli, UniProt P0AES4+P0AES6); test: E. coli DNA gyrase inhibition (Inspiralis assay); format: biochemical
T1 construct: purchased Inspiralis
T1 sequence (P0AES4 whole entry, one chain of several): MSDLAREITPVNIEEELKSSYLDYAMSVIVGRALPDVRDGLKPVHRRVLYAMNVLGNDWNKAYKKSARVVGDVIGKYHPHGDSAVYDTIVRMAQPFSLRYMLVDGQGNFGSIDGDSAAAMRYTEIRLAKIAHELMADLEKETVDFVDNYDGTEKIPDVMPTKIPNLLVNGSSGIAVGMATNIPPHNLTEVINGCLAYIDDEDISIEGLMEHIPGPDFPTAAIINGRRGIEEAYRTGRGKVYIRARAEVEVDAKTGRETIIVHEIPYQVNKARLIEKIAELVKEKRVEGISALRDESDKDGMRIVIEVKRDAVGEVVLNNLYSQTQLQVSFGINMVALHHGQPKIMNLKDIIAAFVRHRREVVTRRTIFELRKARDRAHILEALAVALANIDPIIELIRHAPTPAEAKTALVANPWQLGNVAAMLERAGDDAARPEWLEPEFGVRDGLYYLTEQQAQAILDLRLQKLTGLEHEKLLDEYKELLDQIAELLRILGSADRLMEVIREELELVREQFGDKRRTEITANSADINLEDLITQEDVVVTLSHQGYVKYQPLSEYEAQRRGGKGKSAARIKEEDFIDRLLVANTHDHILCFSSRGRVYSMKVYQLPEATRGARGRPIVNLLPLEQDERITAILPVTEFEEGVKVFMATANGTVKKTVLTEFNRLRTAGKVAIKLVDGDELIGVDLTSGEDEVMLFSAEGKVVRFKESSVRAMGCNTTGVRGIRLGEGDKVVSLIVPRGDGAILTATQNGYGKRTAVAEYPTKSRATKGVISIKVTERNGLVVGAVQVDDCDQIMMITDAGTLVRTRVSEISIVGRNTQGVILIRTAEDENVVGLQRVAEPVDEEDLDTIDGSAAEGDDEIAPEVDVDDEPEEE
Method: Inhibitory potencies were investigated utilizing the Inspiralis assay on streptavidin-coated 96-well microtiter plates. First, the plates were rehydrated with buffer (20 mM Tris-HCl with pH 7.6, 0.01% w/v BSA, 0.05% v/v Tween 20, 137 mM NaCl) and the biotinylated oligonucleotide was then immobilized. After washing off the unbound oligonucleotide, the enzyme test was performed. […] Reaction solutions were incubated at 37° C. for 30 min. After that, the TF buffer (50 mM NaOAc with pH 5.0, 50 mM NaCl and 50 mM MgCl2) was added to terminate the enzymatic reaction. […] The fluorescence was measured with a microplate reader (BioTek Synergy H4, excitation: 485 nm, emission: 535 nm). Initial screening was done at 100 or 10 μM concentration of inhibitors. […] GraphPad Prism software was used to calculate the IC50 values. The result is given as the average value of three independent measurements.

Structure (SMILES)	MIC [1] [µg/mL]	MIC [2] [µg/mL]	MIC [3] [µg/mL]	MIC [4] [µg/mL]	MIC [5] [µg/mL]	MIC [6] [µg/mL]	MIC [7] [µg/mL]	MIC [8] [µg/mL]	MIC [9] [µg/mL]	MIC ([1]; Klebsiella pneumonia MTCC 618, read-out: MIC) [µg/mL]	MIC [10] [µg/mL]	IC50 [11] [nM]
CN[C@H](CC(C)C)C(=O)N[C@H]1C(=O)N[C@@H](CC(N)=O)C(=O)N[C@H]2C(=O)N[C@H]3C(=O)N[C@H](C(=O)N[C@H](C(=O)O)c4cc(O)cc(O)c4-c4cc3ccc4O)[C@H](O)c3ccc(c(Cl)c3)Oc3cc2cc(c3O[C@@H]2O[C@H](CO)[C@@H](O)[C@H](O)[C@H]2O[C@H]2C[C@](C)(N)[C@H](O)[C@H](C)O2)Oc2ccc(cc2Cl)[C@H]1O [Vancomycin, reference compound]	> 128											
CCCCCN(C)Cc1cc(C(=O)O)ccc1N1C(=O)c2nc3c(NC)cc(F)cc3c(O)c2C1=O [Compound 12, 4-(7-fluoro-9-hydroxy-5-(methylamino)-1,3-dioxo-1,3-dihydro-2H-pyrrolo[3,4-b]quinolin-2-yl)-3-((methyl(pentyl)amino)methyl)benzoic acid]		0.5 (≈ 1.01 µM)	1 (≈ 2.02 µM)	0.75 (≈ 1.52 µM)	0.5 (≈ 1.01 µM)	2 (≈ 4.04 µM)	0.75 (≈ 1.52 µM)	1 (≈ 2.02 µM)	4 (≈ 8.09 µM)	1 (≈ 2.02 µM)	4 (≈ 8.09 µM)	16
